{
  "source": "patent US20060286054A1",
  "about": "“PHARMACEUTICAL COMPOSITIONS FOR THE TREATMENT OF PSORIASIS” (Apollo Pharmaceutical, Inc., priority 2005, published 2006)",
  "key": {"[1]": {"tested_on": "THP-1 cells", "experiment": "MTT assay of THP-1 cell proliferation", "format": "cell-based", "details": "titration", "protocol": "THP-1 cells were sub-cultured in 96 well culture plates at a density of 20,000 cells/well. LPS (100 ng/ml) and titrating amounts of Psorberine and/or Calcipotriol were then added to triplicate wells. The cells were cultured for 5 days, at which point the culture plates were centrifuged, the culture media removed and saved, and fresh media containing 0.863 mg/ml MTT added. After culturing for an additional 4 h, the plates were centrifuged again, the media removed from the formazan crystals and the well contents solubilized in DMSO. The absorbance of each well at 560 nm was measured. The data were normalized to the averaged results of the control wells receiving water. The culture supernatants were tested in ELISA (Bio-Source, International) for IL-8, TNF-α and IL-1β content. The effect of Psorberine on THP-1 cell proliferation was examined. […] The increase in the percentage of control seen in the MTT assay at the high concentrations of Psorberine (1:10 and 1:20 dilutions), is most probably due to the strong coloring of the compound (dark green). There is a very high OD recovered from MTT assay upon incubating […] cells with these dilutions of Psorberine."}, "[2]": {"tested_on": "IL-2", "experiment": "IL-2 release from THP-1 cells", "format": "cell-based", "details": "titration curve centered at ˜5 nM"}, "[3]": {"tested_on": "Jurkat cells", "experiment": "In vitro chemotaxis assay of Jurkat cells towards SDF-1α", "format": "cell-based", "details": "for Cell Number (migrated cells per filter) / Migration Index (MI): filters 1-4", "protocol": "Jurakt cells ere grown in cultures in the presence of complete RPMI media. These cells were split one day prior to the assay. More than 99% viable cells were used in the chemotaxis assay. SDF-1α was purchased from Peprotech, Inc.\n96 well plate chemotaxis chambers with a pore size of […] (ChemoTx, Neuro Probe, Inc.) were used in this assay. In the lower wells 30 μl of either RPMI plus 0.1% BSA (control), or 30 μl containing 1 μg/ml SDF-1α (positive chemotaxis) were placed. In other wells, 24 μl containing 1 μg/ml SDF-1α was added to 6 μl of media containing the appropriate concentrations of Psorberine, Calcipotriol or their combination. In the upper wells, 20 μl of media containing 20,000 cells (1×10^6/ml) either alone or in combinations with the compounds were placed. After 2 h, the upper part of the filters was washed with coton swaps to remove the non-migrating cells, and the filters were fixed with absolute methanol for 3 minutes. After this, the filters were stained with 15% Giemsa stain for 7.5 min. The filters were washed three times with distilled water, and the cells migrating to the lower wells were counted under light micriscope. For control (cells migrating in the absence of the chemoattractant), 7 filters were used, whereas 4 filters were used in the experimental conditions. Migration Index (MI) was calculated by dividing the number of cells migrating in the experimental filters by the average number of cells migrating in the control filters."}, "[4]": {"tested_on": "Jurkat cells", "experiment": "Viability of Jurkat cells (Trypan blue exclusion)", "format": "cell-based", "protocol": "The chemotaxis assay was corroborated by determining the viability of Jurkat cells. Viability of these cells either incubated in culture medium alone or with Psorberine or Calcipotriol under the same conditions as in the chemotaxis assay, was done by distinguishing dead from viable cells in the Trypan blue exclusion test. Viability of THP-1 cells was determined after incubating these cells with various concentrations of Psorberine for 4 h."}, "[5]": {"tested_on": "Peripheral blood T cell", "experiment": "T cell proliferation measured by the MTT assay", "format": "cell-based", "details": "for MTT % of Control: T cells, W/LPS", "protocol": "Twenty ml aliquots of heparinized whole blood were subjected to density gradient centrifugation on Ficoll Hypaque. The buffy coat layers representing peripheral blood mononuclear cells (PBMCs) containing lymphocytes and monocytes were washed once, resuspended in RPMI 1640 containing 10% fetal calf sera and then depleted of B cells and monocytes with a T cell enrichment column (R&D Systems). The T cell preparations were centrifuged, resuspended in 5 ml of incomplete RPMI and counted using a hemocytometer. Aliquots of each cell preparation (40,000 cells in 200 μl of incomplete RPMI) were placed in the wells of 96 well culture plates and cultured overnight at 37° C. under 5% CO2. Twenty five μl of RPMI containing 1 μg/ml PMA and 8 μg/ml ionomycin. After culturing for 24 h, the plates were centrifuged at 1200 rpm for 10 min and the culture supernatants removed and saved. Two hundred μl of complete RPMI containing 0.86 mg/ml MTT was added to each well and the plates cultured for an additional 4 h. The plates were centrifuged again, the media removed and the well contents solubilized in 100% DMSO. The optical density at 560 nm of each well was determined and the averaged mean of the duplicate well calculated. The background OD560 value, determined from control wells receiving media containing no MTT, was subtracted from these values and the data normalized to that of the control wells (0 nM compound). IL-2 secretion by activated T cells was determined in the culture supernatants of these cells. The supernatants were assessed using the R&D Biosystems ELISA kit for human IL-2."}, "[6]": {"tested_on": "IL-2", "experiment": "IL-2 secretion by peripheral blood T cells activated with PMA plus ionomycin (ELISA)", "format": "cell-based, human", "details": "24 h, between 0.01-10 nM", "protocol": "Twenty ml aliquots of heparinized whole blood were subjected to density gradient centrifugation on Ficoll Hypaque. The buffy coat layers representing peripheral blood mononuclear cells (PBMCs) containing lymphocytes and monocytes were washed once, resuspended in RPMI 1640 containing 10% fetal calf sera and then depleted of B cells and monocytes with a T cell enrichment column (R&D Systems). The T cell preparations were centrifuged, resuspended in 5 ml of incomplete RPMI and counted using a hemocytometer.\nAliquots of each cell preparation (40,000 cells in 200 μl of incomplete RPMI) were placed in the wells of 96 well culture plates and cultured overnight at 37° C. under 5% CO2. […] The optical density at 560 nm of each well was determined and the averaged mean of the duplicate well calculated. The background OD560 value, determined from control wells receiving media containing no MTT, was subtracted from these values and the data normalized to that of the control wells (0 nM compound). IL-2 secretion by activated T cells was determined in the culture supernatants of these cells. The supernatants were assessed using the R&D Biosystems ELISA kit for human IL-2.\nThe release of IL-2 was also determined 24 h after stimulating peripheral blood T cells with PMA plus ionomycin, in the presence or absence of Psorberine and/or Calcipotriol. […]"}, "[7]": {"tested_on": "keratinocyte", "details": "Muller et al. 1995; cited from earlier work"}, "[8]": {"details": "1 μg/ml SDF-1α + 20 nM Calcipotriol"}, "[9]": {"details": "1 μg/ml SDF-1α + 80 nM Calcipotriol"}, "[10]": {"details": "1 μg/ml SDF-1α + 160 nM Calcipotriol"}},
  "note": "“And” between values parts separate entries of the source, which are not always exact repeats. Equal entries are not always repeated.",
  "data": [
    {"smiles": "C=C1/C(=C\\C=C2/CCC[C@]3(C)[C@@H]([C@H](C)/C=C/[C@@H](O)C4CC4)CC[C@@H]23)C[C@@H](O)C[C@@H]1O", "note": "[Calcipotriol, calcipotriol]", "values": [
      {"measurement": "effect of titrating levels on THP-1 cell proliferation", "setting": "[1]", "result": "multi-phasic, with stimulation seen above concentrations of 1 nM"},
      {"measurement": "IL-2 release", "setting": "[2]", "result": "slight increase"},
      {"measurement": "Cell Number (migrated cells per filter)", "setting": "[3]; [8]", "result": "240 and 200 and 155 and 170"},
      {"measurement": "Migration Index (MI)", "setting": "[3]; [8]", "result": "5.7 and 4.8 and 3.7 and 4.1"},
      {"measurement": "Cell Number (migrated cells per filter)", "setting": "[3]; [9]", "result": "240 and 160 and 180 and 220"},
      {"measurement": "Migration Index (MI)", "setting": "[3]; [9]", "result": "5.7 and 3.8 and 4.3 and 5.2"},
      {"measurement": "Cell Number (migrated cells per filter)", "setting": "[3]; [10]", "result": "200 and 198 and 150 and 205"},
      {"measurement": "Migration Index (MI)", "setting": "[3]; [10]", "result": "4.8 and 4.7 and 3.6 and 4.9"},
      {"measurement": "SDF-1α-induced Jurkat cell chemotaxis", "setting": "[3]; between 20-160 nM", "result": "did not affect"},
      {"measurement": "# Dead Cells", "setting": "[4]; 20 nM Calcipotriol", "result": 178},
      {"measurement": "# Viable Cells", "setting": "[4]; 20 nM Calcipotriol", "result": 18},
      {"measurement": "% Viability", "setting": "[4]; 20 nM Calcipotriol", "result": 91, "unit": "%"},
      {"measurement": "# Dead Cells", "setting": "[4]; 80 nM Calcipotriol", "result": 175},
      {"measurement": "# Viable Cells", "setting": "[4]; 80 nM Calcipotriol", "result": 17},
      {"measurement": "% Viability", "setting": "[4]; 80 nM Calcipotriol", "result": 91, "unit": "%"},
      {"measurement": "# Dead Cells", "setting": "[4]; 160 nM Calcipotriol", "result": 134},
      {"measurement": "# Viable Cells", "setting": "[4]; 160 nM Calcipotriol", "result": 11},
      {"measurement": "% Viability", "setting": "[4]; 160 nM Calcipotriol", "result": 92, "unit": "%"},
      {"measurement": "MTT % of Control", "setting": "[5]; concentration 0.050 (unit not given)", "result": 109.0164, "unit": "%"},
      {"measurement": "MTT % of Control", "setting": "[5]; concentration 0.100 (unit not given)", "result": 88.52, "unit": "%"},
      {"measurement": "MTT % of Control", "setting": "[5]; concentration 0.500 (unit not given)", "result": 107.377, "unit": "%"},
      {"measurement": "MTT % of Control", "setting": "[5]; concentration 1.000 (unit not given)", "result": 99.18, "unit": "%"},
      {"measurement": "MTT % of Control", "setting": "[5]; concentration 5.000 (unit not given)", "result": 78.69, "unit": "%"},
      {"measurement": "MTT % of Control", "setting": "[5]; concentration 10.000 (unit not given)", "result": 116.3934, "unit": "%"},
      {"measurement": "MTT % of Control", "setting": "[5]; concentration 50.000 (unit not given)", "result": 113.1148, "unit": "%"},
      {"measurement": "MTT % of Control", "setting": "[5]; concentration 100.000 (unit not given)", "result": 83.61, "unit": "%"},
      {"measurement": "T cell proliferation", "setting": "[5]; absence or presence of PMA plus ionomycin", "result": "Significant differences in T cell proliferation were not observed"},
      {"measurement": "reduction of IL-2 concentration", "setting": "[6]", "result": "40-50%"}
    ]},
    {"smiles": "COc1ccc2cc3[n+](cc2c1OC)CCc1cc2c(cc1-3)OCO2", "note": "[berberine]", "values": [
      {"measurement": "keratinocyte growth in vitro", "setting": "[7]", "result": "inhibits"}
    ]}
  ]
}
